# Patent US8440594B2, “Pyridothiazines having herbicidal action” (BASF SE, priority 2010, dated 2013)
# Columns and labels:
# Test in all cases: Greenhouse herbicidal activity, post-emergence treatment
# Type in all cases: in vivo
# [1] = system: Echinochloa crus-galli (ECHCG); conditions: scale 0 to 100
# Source text: (§1) The seeds of the test plants were sown separately for each species. For the post-emergence treatment, the test plants were first grown to a height of 3 to 15 cm, depending on the plant habit, and only then treated with the active ingredients which had been suspended or emulsified in water. For this purpose, the test plants were either sown directly and grown in the same containers, or they were first grown separately as seedlings and transplanted into the test containers a few days prior to treatment. Depending on the species, the plants were kept at 10-25° C. or 20-35° C. The test period extended over 2 to 4 weeks. During this time, the plants were tended, and their response to the individual treatments was evaluated. Evaluation was carried out using a scale from 0 to 100. 100 means no emergence of the plants, or complete destruction of at least the aerial moieties, and 0 means no damage, or normal course of growth. A good herbicidal activity is given at values of at least 70 and a very good herbicidal activity is given at values of at least 85. The plants used in the greenhouse experiments belonged to the following species: [table]
# [2] = system: Galium aparine (GALAP); conditions: scale 0 to 100
# Source text: as §1
# [3] = system: Alopecurus myosuroides (ALOMY); conditions: scale 0 to 100
# Source text: as §1
# [4] = system: Amaranthus retroflexus (AMARE); conditions: scale 0 to 100
# Source text: as §1
# [5] = system: Chenopodium album (CHEAL); conditions: for herbicidal activity against CHEAL: scale 0 to 100; for pest or weed control at 500 g/ha: application rate 0.5 kg/ha
# Source text: as §1
# [6] = system: Setaria faberi (SETFA); conditions: application rate 0.5 kg/ha, scale 0 to 100
# Source text: as §1
# [7] = system: Stellaria media (STEME); conditions: scale 0 to 100
# Source text: as §1
# [8] = system: Abutilon theophrasti (ABUTH); conditions: application rate 0.25 kg/ha, scale 0 to 100
# Source text: as §1
# [9] = Chenopodium album, scale 0 to 100, read-out: herbicidal activity against CHEAL
# [10] = Chenopodium album, application rate 0.25 kg/ha, scale 0 to 100, read-out: herbicidal activity against CHEAL
smiles,measurement,setting,value
O=S1(=O)C(c2cc(F)ccc2C(F)(F)F)=C(O)c2ncccc2N1CC(F)F [Compound I-3],herbicidal activity against ECHCG,[1]; application rate 0.5 kg/ha,very good herbicidal activity (a very good herbicidal activity is given at values of at least 85)
O=S1(=O)C(c2ccccc2Cl)=C(O)c2ncccc2N1CC(F)F [Compound I-5],herbicidal activity against ECHCG,[1]; application rate 0.5 kg/ha,good herbicidal activity (A good herbicidal activity is given at values of at least 70)
O=S1(=O)C(c2cc(Cl)ccc2Cl)=C(O)c2ncccc2N1CC(F)F [Compound I-7],herbicidal activity against GALAP,[2]; application rate 0.5 kg/ha,good herbicidal activity (A good herbicidal activity is given at values of at least 70)
same,herbicidal activity against ALOMY,[3]; application rate 0.5 kg/ha,very good herbicidal activity (a very good herbicidal activity is given at values of at least 85)
CC1=NOC(c2c(S(C)(=O)=O)ccc(C3=C(O)c4ncccc4N(CC(F)F)S3(=O)=O)c2C)C1 (stereo not shown) [Compound I-8],herbicidal activity against AMARE,[4]; application rate 0.447 kg/ha,very good herbicidal activity (a very good herbicidal activity is given at values of at least 85)
same,herbicidal activity against CHEAL,[5]; application rate 0.447 kg/ha,very good herbicidal activity (a very good herbicidal activity is given at values of at least 85)
Cc1c(C2=C(O)c3ncccc3N(CC(F)F)S2(=O)=O)ccc2c1S(=O)(=O)CCC2(C)C [Compound I-10],herbicidal activity against AMARE,[4]; application rate 0.041 kg/ha,very good herbicidal activity (a very good herbicidal activity is given at values of at least 85)
same,herbicidal activity against CHEAL,[5]; application rate 0.041 kg/ha,very good herbicidal activity (a very good herbicidal activity is given at values of at least 85)
CON=C1CCS(=O)(=O)c2c1ccc(C1=C(O)c3ncccc3N(CC(F)F)S1(=O)=O)c2C [Compound I-22],herbicidal activity against SETFA,[6],good herbicidal activity (A good herbicidal activity is given at values of at least 70)
CCOc1c(S(=O)(=O)CC)ccc(C2=C(O)c3ncccc3N(CC(C)C)S2(=O)=O)c1Cl [Compound I-29],herbicidal activity against AMARE,[4]; application rate 0.154 kg/ha,very good herbicidal activity (a very good herbicidal activity is given at values of at least 85)
CCCCN1c2cccnc2C(O)=C(c2ccc(S(C)(=O)=O)c(OC)c2C)S1(=O)=O [Compound I-32],pest or weed control at 400 g/ha,"[5]; Chenopodium album, application rate 0.4 kg/ha, scale 0 to 100, read-out: herbicidal activity against CHEAL",≥ 85%
COc1c(S(C)(=O)=O)ccc(C2=C(O)c3ncccc3N(CC(C)C)S2(=O)=O)c1C [Compound I-33],herbicidal activity against CHEAL,[5]; application rate 0.345 kg/ha,very good herbicidal activity (a very good herbicidal activity is given at values of at least 85)
same,herbicidal activity against ECHCG,[1]; application rate 0.345 kg/ha,very good herbicidal activity (a very good herbicidal activity is given at values of at least 85)
CCN1c2cccnc2C(O)=C(c2cccc(OC(F)(F)F)c2Cl)S1(=O)=O [Compound I-34],pest or weed control at 233 g/ha,"[5]; Chenopodium album, application rate 0.233 kg/ha, scale 0 to 100, read-out: herbicidal activity against CHEAL",≥ 85%
same,herbicidal activity against STEME,[7]; application rate 0.233 kg/ha,very good herbicidal activity (a very good herbicidal activity is given at values of at least 85)
CN1c2cccnc2C(O)=C(c2ccc(Cl)cc2Cl)S1(=O)=O [Compound I-39],pest or weed control at 500 g/ha,[5]; [9],≥ 85%
CCN1c2cccnc2C(O)=C(c2ccc(Cl)cc2Cl)S1(=O)=O [Compound I-40],pest or weed control at 500 g/ha,[5]; [9],≥ 85%
CCCN1c2cccnc2C(O)=C(c2ccc(Cl)cc2Cl)S1(=O)=O [Compound I-41],pest or weed control at 500 g/ha,[5]; [9],≥ 85%
CCCCN1c2cccnc2C(O)=C(c2ccc(Cl)cc2Cl)S1(=O)=O [Compound I-42],pest or weed control at 500 g/ha,[5]; [9],≥ 85%
CN1c2cccnc2C(O)=C(c2ccccc2Cl)S1(=O)=O [Compound I-44],pest or weed control at 100 g/ha,"[5]; Chenopodium album, application rate 0.1 kg/ha, scale 0 to 100, read-out: herbicidal activity against CHEAL",≥ 85%
same,herbicidal activity against ECHCG,[1]; application rate 0.1 kg/ha,very good herbicidal activity (a very good herbicidal activity is given at values of at least 85)
CN1c2cccnc2C(O)=C(c2ccccc2C(F)(F)F)S1(=O)=O [Compound I-45],herbicidal activity against ABUTH,[8],very good herbicidal activity (a very good herbicidal activity is given at values of at least 85)
CC(C)N1c2cccnc2C(O)=C(c2ccccc2Cl)S1(=O)=O [Compound I-51],pest or weed control at 500 g/ha,[5]; [9],≥ 85%
"O=S1(=O)C(c2cc(Cl)cc(N3CCOCC3)c2C(F)(F)F)=C(O)c2ncccc2N1CC(F)F [Compound I-56, 3-[5-chloro-3-morpholino-2-(trifluoromethyl)phenyl]-1-(2,2-difluoroethyl)-2,2-dioxo-pyrido[3,2-c]thiazin-4-ol]",herbicidal activity against AMARE,[4]; application rate 0.25 kg/ha,good herbicidal activity (A good herbicidal activity is given at values of at least 70)
CCN1c2cccnc2C(O)=C(c2ccc(Cl)c(C)c2Cl)S1(=O)=O [Compound I-59],pest or weed control at 154 g/ha,"[5]; Chenopodium album, application rate 0.154 kg/ha, scale 0 to 100, read-out: herbicidal activity against CHEAL",≥ 85%
O=S1(=O)C(c2ccc(F)cc2F)=C(O)c2ncccc2N1CC(F)F [Compound I-62],herbicidal activity against GALAP,[2]; application rate 0.0625 kg/ha,good herbicidal activity (A good herbicidal activity is given at values of at least 70)
same,herbicidal activity against CHEAL,[5]; application rate 0.0625 kg/ha,very good herbicidal activity (a very good herbicidal activity is given at values of at least 85)
CCN1c2cccnc2C(O)=C(c2ccc(F)cc2F)S1(=O)=O [Compound I-63],pest or weed control at 250 g/ha,[5]; [10],≥ 85%
CS(=O)(=O)c1ccc(C2=C(O)c3ncccc3N(CC(F)F)S2(=O)=O)c(Cl)c1C1=NOCC1 [Compound I-66],herbicidal activity against AMARE,[4]; application rate 0.075 kg/ha,very good herbicidal activity (a very good herbicidal activity is given at values of at least 85)
same,herbicidal activity against CHEAL,[5]; application rate 0.075 kg/ha,very good herbicidal activity (a very good herbicidal activity is given at values of at least 85)
same,herbicidal activity against STEME,[7]; application rate 0.075 kg/ha,very good herbicidal activity (a very good herbicidal activity is given at values of at least 85)
Cc1c(C2=C(O)c3ncccc3N(CC(F)F)S2(=O)=O)ccc2c1C(=O)C(C)(C)CS2(=O)=O [Compound I-71],herbicidal activity against CHEAL,[5]; application rate 0.25 kg/ha,good herbicidal activity (A good herbicidal activity is given at values of at least 70)
CCN1c2cccnc2C(O)=C(c2ccc(Br)cc2Cl)S1(=O)=O [Compound I-81],pest or weed control at 250 g/ha,[5]; [10],≥ 85%
COC(CN1c2cccnc2C(O)=C(c2ccccc2C(F)(F)F)S1(=O)=O)OC [Compound I-82],herbicidal activity against ALOMY,[3]; application rate 0.25 kg/ha,very good herbicidal activity (a very good herbicidal activity is given at values of at least 85)
